# Measured values taken from ChEMBL document CHEMBL5465560, “Selectivity Literature for EUbOPEN Chemogenomic Library” (2024).
# Tests used:
# [1] = target: T1, Serine/threonine-protein kinase TAO3 (Homo sapiens) (UniProt Q9H2K8); assay: Selectivity interaction (KinomeScan (DiscoverX)) EUB0001049a TAOK3; conditions: at 1 µM
# T1 sequence (whole entry): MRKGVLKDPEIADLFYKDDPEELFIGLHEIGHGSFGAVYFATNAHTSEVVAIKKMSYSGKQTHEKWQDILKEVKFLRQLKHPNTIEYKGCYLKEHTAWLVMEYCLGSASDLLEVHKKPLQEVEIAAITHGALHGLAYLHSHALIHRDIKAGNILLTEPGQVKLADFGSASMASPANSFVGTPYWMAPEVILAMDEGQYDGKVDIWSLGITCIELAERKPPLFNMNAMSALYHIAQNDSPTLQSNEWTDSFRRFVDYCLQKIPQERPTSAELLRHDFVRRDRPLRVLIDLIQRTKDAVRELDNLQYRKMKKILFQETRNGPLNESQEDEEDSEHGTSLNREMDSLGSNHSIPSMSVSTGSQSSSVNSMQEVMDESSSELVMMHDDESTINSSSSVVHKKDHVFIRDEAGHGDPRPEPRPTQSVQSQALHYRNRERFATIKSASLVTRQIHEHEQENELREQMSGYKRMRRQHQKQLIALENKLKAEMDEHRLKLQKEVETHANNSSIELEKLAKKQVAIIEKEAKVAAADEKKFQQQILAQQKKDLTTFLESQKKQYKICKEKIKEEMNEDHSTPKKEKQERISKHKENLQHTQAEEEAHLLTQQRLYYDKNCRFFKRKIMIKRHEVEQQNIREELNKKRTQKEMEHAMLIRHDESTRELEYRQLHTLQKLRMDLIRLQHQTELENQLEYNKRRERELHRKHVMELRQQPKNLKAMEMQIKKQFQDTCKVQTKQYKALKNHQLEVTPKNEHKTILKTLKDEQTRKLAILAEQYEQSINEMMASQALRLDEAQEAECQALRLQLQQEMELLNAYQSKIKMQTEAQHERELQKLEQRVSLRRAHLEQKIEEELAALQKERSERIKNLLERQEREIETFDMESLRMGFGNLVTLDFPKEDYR
# [2] = target: Mitogen-activated protein kinase kinase kinase 9 (Homo sapiens) (UniProt P80192); assay: Selectivity interaction (Kinase panel (literature)) EUB0001199aCl MAP3K9; conditions: at 1 µM
# [3] = target: Calcium/calmodulin-dependent protein kinase type II subunit alpha (Homo sapiens, UniProt Q9UQM7); assay: Selectivity interaction (Kinase panel (literature)) EUB0001199aCl CAMK2A; conditions: at 1 µM
# Aurora kinase B = Aurora kinase B (Homo sapiens, UniProt Q96GD4); assay: Selectivity interaction (KinomeScan (DiscoverX)) EUB0001079a AURKB; conditions: at 1 µM
# [4] = target: Tyrosine-protein kinase BAZ1B (Homo sapiens) (UniProt Q9UIG0); assay: Selectivity interaction (Human bromodomain panel (DSF assay)) EUB0000233b BAZ1B
# [5] = target: Mitogen-activated protein kinase kinase kinase 11 (Homo sapiens) (UniProt Q16584); assay: Selectivity interaction (ActivX KiNativ screen (kinase selectivity in THP-1 cell lysates)) EUB0000639a MAP3K11; assay type: subcellular; conditions: lysate
# [6] = target: Cyclin-dependent kinase 8 (Homo sapiens, UniProt P49336); conditions: at 10 µM
# [7] = target: Serine/threonine-protein kinase PLK2 (Homo sapiens, UniProt Q9NYY3); assay: Selectivity interaction (KinomeScan (DiscoverX)) EUB0000092b PLK2; conditions: at 10 µM
# [8] = target: Mitogen-activated protein kinase kinase kinase 9 (Homo sapiens) (UniProt P80192); assay: Selectivity interaction (KinomeScan (DiscoverX)) EUB0000045b MAP3K9
# [9] = target: T2, Mitogen-activated protein kinase kinase kinase 13 (Homo sapiens) (UniProt O43283); assay: Selectivity interaction (KinomeScan (DiscoverX)) EUB0000618a MAP3K13; conditions: at 10 µM
# T2 sequence (whole entry): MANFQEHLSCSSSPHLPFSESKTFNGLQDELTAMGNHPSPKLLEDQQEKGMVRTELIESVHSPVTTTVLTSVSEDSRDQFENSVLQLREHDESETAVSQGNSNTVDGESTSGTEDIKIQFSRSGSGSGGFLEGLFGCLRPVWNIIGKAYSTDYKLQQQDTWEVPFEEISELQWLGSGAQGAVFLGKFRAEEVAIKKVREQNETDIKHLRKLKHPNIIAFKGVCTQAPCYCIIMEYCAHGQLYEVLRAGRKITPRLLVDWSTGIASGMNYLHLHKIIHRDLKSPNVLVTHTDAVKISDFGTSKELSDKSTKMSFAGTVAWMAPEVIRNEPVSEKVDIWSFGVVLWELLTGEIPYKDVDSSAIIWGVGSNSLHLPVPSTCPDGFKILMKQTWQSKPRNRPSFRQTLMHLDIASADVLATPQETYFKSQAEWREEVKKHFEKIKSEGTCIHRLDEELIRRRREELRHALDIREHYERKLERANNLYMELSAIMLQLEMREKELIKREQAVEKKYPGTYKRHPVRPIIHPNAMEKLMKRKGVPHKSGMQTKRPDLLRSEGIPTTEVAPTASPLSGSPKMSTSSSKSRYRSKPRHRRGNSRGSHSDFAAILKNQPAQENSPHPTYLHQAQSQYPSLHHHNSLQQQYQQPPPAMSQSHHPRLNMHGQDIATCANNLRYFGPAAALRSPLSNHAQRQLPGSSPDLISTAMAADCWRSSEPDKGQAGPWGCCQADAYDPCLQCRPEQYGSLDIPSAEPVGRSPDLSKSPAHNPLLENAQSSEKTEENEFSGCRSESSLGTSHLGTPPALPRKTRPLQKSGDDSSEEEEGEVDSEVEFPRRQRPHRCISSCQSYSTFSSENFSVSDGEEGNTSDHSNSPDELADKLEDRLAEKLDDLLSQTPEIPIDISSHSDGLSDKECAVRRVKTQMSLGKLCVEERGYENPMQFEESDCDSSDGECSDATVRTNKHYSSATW
# [10] = tested on: Epidermal growth factor receptor (Homo sapiens), P00533 [UNDEFINED MUTATION]; assay: Selectivity interaction (KinomeScan (DiscoverX)) EUB0000607a EGFR; conditions: at 10 µM
# [11] = target: 5-hydroxytryptamine receptor 1B (Homo sapiens) (UniProt P28222); assay: Selectivity interaction (Panel of kinases, GPCRs, ion channels and transporters (enzymatic assay)) EUB0000223bCl HTR1B
# Chain of 5-hydroxytryptamine receptor 1B (Homo sapiens) (P28222 whole entry): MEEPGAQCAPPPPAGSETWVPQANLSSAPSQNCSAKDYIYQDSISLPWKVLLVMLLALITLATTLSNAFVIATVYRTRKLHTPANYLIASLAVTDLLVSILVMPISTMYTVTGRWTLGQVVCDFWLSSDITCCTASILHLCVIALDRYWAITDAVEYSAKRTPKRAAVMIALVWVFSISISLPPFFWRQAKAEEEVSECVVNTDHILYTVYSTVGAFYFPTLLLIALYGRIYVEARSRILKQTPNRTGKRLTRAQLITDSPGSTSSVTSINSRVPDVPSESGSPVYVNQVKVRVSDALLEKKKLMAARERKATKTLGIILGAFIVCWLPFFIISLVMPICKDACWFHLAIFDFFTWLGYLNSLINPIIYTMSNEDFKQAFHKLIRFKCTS
# Chain of Mitogen-activated protein kinase kinase kinase 11 (Homo sapiens) (Q16584 whole entry, looked up): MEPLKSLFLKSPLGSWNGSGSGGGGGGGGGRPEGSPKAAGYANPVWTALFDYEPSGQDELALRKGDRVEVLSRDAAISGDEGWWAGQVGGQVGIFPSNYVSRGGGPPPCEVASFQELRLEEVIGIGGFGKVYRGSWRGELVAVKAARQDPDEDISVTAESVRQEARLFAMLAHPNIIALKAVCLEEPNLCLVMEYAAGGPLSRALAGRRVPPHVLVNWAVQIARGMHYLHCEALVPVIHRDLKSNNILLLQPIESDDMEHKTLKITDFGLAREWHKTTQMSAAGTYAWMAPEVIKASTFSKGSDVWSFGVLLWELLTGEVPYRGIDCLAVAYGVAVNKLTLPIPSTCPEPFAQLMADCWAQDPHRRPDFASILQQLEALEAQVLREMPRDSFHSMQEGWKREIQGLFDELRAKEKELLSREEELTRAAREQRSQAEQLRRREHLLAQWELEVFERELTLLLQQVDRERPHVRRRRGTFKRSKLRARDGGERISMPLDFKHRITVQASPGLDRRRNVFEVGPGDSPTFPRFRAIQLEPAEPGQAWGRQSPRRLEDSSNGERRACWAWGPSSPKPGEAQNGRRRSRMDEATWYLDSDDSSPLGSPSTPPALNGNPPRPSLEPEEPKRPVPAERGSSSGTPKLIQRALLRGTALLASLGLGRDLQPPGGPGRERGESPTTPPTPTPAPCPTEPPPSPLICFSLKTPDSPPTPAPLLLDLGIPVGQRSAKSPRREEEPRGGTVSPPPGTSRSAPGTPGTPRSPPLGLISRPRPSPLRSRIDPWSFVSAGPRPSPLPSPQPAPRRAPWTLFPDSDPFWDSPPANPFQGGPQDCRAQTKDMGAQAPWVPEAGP
# Chain of Mitogen-activated protein kinase kinase kinase 9 (Homo sapiens) (P80192 whole entry, looked up): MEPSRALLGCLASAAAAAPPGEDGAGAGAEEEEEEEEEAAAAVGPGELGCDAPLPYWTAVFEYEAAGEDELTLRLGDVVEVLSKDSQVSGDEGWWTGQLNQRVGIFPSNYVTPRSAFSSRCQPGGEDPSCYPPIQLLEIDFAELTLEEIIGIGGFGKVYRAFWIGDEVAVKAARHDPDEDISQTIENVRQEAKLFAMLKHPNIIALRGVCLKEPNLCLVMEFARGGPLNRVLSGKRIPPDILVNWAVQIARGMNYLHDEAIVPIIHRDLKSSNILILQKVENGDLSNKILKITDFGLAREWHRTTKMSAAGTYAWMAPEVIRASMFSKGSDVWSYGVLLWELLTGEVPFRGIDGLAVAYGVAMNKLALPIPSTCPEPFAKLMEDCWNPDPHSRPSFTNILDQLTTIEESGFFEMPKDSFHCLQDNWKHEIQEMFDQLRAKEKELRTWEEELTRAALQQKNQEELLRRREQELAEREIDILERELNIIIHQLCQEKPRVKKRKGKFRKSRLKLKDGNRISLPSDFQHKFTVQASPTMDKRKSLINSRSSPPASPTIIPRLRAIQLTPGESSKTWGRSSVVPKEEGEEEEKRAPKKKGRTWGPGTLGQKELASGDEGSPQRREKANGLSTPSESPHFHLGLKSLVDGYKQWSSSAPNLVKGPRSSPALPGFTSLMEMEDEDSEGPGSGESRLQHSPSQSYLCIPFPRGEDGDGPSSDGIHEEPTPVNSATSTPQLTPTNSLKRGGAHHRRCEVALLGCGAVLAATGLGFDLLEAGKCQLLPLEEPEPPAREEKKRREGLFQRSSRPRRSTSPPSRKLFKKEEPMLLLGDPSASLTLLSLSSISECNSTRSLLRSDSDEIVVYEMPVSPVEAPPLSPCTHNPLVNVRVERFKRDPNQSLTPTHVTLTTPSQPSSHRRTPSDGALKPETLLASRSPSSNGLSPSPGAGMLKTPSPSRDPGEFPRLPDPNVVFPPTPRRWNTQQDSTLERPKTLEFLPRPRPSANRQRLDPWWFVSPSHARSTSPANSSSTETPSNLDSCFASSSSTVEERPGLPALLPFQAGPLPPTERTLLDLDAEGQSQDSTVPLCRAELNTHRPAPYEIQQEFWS
# Chain of Aurora kinase B (Q96GD4 whole entry): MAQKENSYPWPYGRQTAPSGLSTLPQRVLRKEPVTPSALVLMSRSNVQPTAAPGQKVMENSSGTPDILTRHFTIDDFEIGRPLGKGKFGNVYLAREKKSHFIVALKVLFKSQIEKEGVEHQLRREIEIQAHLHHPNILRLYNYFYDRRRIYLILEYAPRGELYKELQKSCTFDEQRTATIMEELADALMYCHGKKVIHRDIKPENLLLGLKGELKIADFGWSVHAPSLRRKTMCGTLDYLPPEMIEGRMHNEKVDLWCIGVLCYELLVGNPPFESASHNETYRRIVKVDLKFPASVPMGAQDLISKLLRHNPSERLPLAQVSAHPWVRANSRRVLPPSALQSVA
# Chain of Serine/threonine-protein kinase PLK2 (Q9NYY3 whole entry, looked up): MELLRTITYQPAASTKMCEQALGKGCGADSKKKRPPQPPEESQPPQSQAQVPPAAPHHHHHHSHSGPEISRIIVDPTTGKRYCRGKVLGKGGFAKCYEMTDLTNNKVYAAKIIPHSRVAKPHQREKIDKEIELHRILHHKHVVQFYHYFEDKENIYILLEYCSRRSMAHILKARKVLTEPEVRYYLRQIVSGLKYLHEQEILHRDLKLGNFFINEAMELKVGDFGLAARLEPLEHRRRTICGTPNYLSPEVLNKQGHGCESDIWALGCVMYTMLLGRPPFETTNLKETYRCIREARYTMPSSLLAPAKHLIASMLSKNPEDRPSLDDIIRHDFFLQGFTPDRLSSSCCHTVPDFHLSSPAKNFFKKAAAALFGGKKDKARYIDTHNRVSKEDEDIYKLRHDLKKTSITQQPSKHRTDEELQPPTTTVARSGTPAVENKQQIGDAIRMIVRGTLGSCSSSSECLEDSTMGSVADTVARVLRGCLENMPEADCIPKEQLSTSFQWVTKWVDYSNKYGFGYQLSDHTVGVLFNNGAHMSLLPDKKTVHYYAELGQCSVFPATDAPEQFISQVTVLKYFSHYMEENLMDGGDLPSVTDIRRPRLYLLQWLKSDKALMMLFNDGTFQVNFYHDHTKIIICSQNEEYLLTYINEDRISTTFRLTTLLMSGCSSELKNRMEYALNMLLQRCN
# Chain of Epidermal growth factor receptor (Homo sapiens), P00533 [UNDEFINED MUTATION] (P00533 whole entry, looked up, change not shown): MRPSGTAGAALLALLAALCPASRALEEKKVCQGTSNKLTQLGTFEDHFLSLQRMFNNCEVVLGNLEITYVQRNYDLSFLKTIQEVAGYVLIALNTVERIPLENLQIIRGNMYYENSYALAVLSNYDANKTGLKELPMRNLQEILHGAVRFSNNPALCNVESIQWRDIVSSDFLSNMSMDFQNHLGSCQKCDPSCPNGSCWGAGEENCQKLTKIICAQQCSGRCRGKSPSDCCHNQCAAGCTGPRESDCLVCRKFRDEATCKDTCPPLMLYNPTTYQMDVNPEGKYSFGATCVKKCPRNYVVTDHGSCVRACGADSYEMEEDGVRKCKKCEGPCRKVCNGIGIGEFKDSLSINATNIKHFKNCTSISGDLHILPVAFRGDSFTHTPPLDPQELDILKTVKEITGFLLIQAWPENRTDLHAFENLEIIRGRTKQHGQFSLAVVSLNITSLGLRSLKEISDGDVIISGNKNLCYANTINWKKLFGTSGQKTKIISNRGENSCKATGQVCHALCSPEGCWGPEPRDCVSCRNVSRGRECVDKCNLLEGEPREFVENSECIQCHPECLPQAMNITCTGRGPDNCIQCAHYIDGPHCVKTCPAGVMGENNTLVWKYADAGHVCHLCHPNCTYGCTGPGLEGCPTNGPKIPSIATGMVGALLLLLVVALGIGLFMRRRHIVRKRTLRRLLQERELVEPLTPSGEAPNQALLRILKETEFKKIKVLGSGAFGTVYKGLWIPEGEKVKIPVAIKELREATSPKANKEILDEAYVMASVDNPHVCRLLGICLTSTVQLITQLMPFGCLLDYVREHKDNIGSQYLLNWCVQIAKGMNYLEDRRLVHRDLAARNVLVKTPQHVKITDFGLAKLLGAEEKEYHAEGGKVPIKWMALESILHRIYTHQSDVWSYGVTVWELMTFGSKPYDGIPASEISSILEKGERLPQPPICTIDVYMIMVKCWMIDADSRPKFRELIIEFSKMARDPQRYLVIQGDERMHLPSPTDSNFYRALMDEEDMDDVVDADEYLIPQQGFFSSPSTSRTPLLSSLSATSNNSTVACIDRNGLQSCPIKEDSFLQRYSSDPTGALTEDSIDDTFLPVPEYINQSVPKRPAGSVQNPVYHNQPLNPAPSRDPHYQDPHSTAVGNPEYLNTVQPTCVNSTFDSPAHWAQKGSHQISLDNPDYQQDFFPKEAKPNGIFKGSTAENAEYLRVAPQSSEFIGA
# Chain of Calcium/calmodulin-dependent protein kinase type II subunit alpha (Q9UQM7 whole entry): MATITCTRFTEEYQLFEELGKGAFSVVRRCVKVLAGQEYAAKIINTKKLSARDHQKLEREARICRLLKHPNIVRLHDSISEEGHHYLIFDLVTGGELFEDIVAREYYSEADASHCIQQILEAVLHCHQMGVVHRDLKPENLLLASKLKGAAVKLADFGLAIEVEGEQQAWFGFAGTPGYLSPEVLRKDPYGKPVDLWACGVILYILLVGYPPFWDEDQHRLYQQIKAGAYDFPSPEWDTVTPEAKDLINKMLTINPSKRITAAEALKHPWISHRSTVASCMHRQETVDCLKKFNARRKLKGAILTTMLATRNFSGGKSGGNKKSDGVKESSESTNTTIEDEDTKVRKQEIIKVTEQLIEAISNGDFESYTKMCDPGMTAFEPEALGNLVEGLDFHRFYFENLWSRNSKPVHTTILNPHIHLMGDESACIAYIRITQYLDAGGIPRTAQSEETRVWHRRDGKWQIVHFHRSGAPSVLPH
smiles,measurement,setting,value
COc1cc(Nc2nc(C)cc(-c3cnn4nc(OC)ccc34)n2)cc(C(F)(F)F)c1,% of control,[1],75%
CN1Cc2nccc(-c3cn(C)nc3-c3ccc(F)cc3)c2C1=O,% of inhibition,[2],2%
same,% of inhibition,[3],10%
Nc1cnc(N2CCc3cc(S(=O)(=O)Nc4c(F)cc(Cl)cc4F)cc(N4CCCC4=O)c32)nc1 [TP-020n],% of control,Aurora kinase B,98%
CN(C)CCCOc1ccc(-c2cc(NCCCn3cccn3)nc(S(C)(=O)=O)n2)cc1,dTM,[4],< 2 K
CC[C@@H]1[C@H](F)C(=O)N[C@@H]1COc1nccc2cc(C(N)=O)c(OC)cc12 [ZIMLOVISERTIB],% of inhibition,[5]; at 0.01 µM,3.8%
same,% of inhibition,[5]; at 0.04 µM,-0.9%
same,% of inhibition,[5]; at 0.2 µM,5%
same,% of inhibition,[5]; at 1 µM,8.5%
same,% of inhibition,[5]; at 5 µM,17%
COCC(=O)NC/C=C/c1ccc2ncnc(Nc3ccc(Oc4ccc(C)nc4)c(C)c3)c2c1 [CP-724714],% of control,[6],3%
CCC(=O)N1CCN(c2ccc(-n3c(=O)ccc4cnc5ccc(-c6cnc7ccccc7c6)cc5c43)cc2C(F)(F)F)CC1,% of control,[7],85%
C=CC(=O)Nc1cc(-n2c(=O)ccc3cnc4ccc(-c5ccc(NS(C)(=O)=O)cc5)cc4c32)ccc1C,% of control,[8]; at 1 µM,100%
same,% of control,[8]; at 10 µM,83%
O[C@H]1CC[C@H](Nc2ncc3nc(Nc4c(F)cc(F)cc4F)n([C@H]4CCOC4)c3n2)CC1,% of control,[9],100%
CNC(=O)Nc1ccc(-c2nc(N3CC4CCC(C3)O4)c3cnn(C4CCC5(CC4)OCCO5)c3n2)cc1,% of control,[10],50%
COc1cc(C(=O)N2CC[C@@H](O)[C@@H](N)C2)cc2nc(-c3cc4ccccc4n3CC3CC3)n(C)c12,pXC50,[11],4.7 M
